From article PMC8979682, “Synthesis, Antioxidant, and Antidiabetic Activities of Ketone Derivatives of Succinimide” (Evidence-based Complementary and Alternative Medicine : eCAM, 2022)
In brackets after ≈: the same amount, converted by molar mass.

Legend:
[1] = ABTS scavenging activity; format: biochemical
Experimental: For the determination of the antioxidant activity of the synthesized compounds, the previously reported method for ABTS scavenging activity was used with slight modification. The stock solution of 2.4 mM of potassium per sulfate solution and 7 mM ABTS solution was prepared by mixing them in equal volumes for 16 h. The stock solution thus prepared was diluted using methyl alcohol to give absorption of 0.7 ± 0.02 units when studied at the wavelength of 734 nm using a spectrophotometer. Fresh ABTS solution was prepared for each ABTS scavenging assay. About 150 μL of the ABTS working solution was added to 50 μL of synthesized compounds and kept in darkness for 10 min. […] Methanol was used as blank, and standard ascorbic acid was run at the same time. The absorbance was calculated utilizing a microplate reader at 734 nm.

[2] = system: diabetic mice (by alloxan); experiment: antidiabetic activity in diabetic mice (by alloxan); format: in vivo
Experimental: Alloxan was used for the induction of diabetes mellitus according to reported procedure. Recently prepared Alloxan (ALX) was injected intraperitoneally to animals, fasting for 16 h, at a single dose of (150 mg/kg). […] Only diabetic animals, having random blood glucose level more than 200 mg/dl, were selected for studies. All the experimental procedure were approved from the ethical committee department of pharmacy, University of Swabi via letter No; UOS-06/2021.
A total of 30 animals were used to determine the hypoglycemic effect of the synthesized derivatives of succinimide. The experimental animals were segregated in six groups […], having five (5) animals in each group. Group I was designated as normal group and was given normal saline I/P only. Group II was given Tween 80, and Group III was given standard drug (glibenclamide) after the induction of diabetes. Group IV, Group V, and Group VI were given the various doses of synthesized compounds, respectively. […]

[3] = DPPH scavenging activity; format: biochemical
Experimental: The antioxidant assay of the synthesized compounds was conducted following the previously reported method. A freshly prepared DPPH solution (50 μL of 1.0 × 10^−3 M) was added in methyl alcohol. Methanol was used as a control in this experiment. The prepared mixture was subjected to incubation at 25°C for 30 min. A decrease in the DPPH free radical concentration was calculated using a spectrophotometer at a wavelength of 517 nm. After incubation ascorbic acid was used as a positive control. The antioxidant activity was determined as a percent (%) of inhibition using the formula given:(1) percent inhibition=absorbancecontrol−absorbancesample/absorbancecontrol×100.

[4] = target: α-glucosidase; experiment: in vitro α-glucosidase inhibition; format: biochemical
Experimental: For in vitro α-glucosidase activity, samples were prepared by adding glucopyranoside to phosphate buffer solvent, and different concentrations of the synthesized compounds (31.25, 62.5, 125, 250, and 500 µg/ml), respectively, were added to this solution and then the enzyme glucosidase in distilled water (0.5 µg/ml) was also added to the above mixture. The reaction mixture thus prepared was subjected to incubation at 37°C for 20 minutes. The reaction was halted by adding HCl after incubation of the mixture. The intensity of the color was determined at 540 nm by spectrophotometer, and the formula given below was used for the determination of percent inhibition:(2) percent inhibition=absorbancecontrol−absorbancesample/absorbancecontrol×100.

[5] = system: mice; experiment: oral glucose tolerance test (OGTT); format: in vivo; conditions: glucose 2 g/kg orally
Experimental: To perform OGTT mice fasted overnight were used including both control and treated mice. Glucose was administered orally at the dose of 2 g/kg against glibenclamide as standard drug. After administration of glucose, blood glucose level was calculated at time intervals of 0, 30, 60, and 120 min for assessment of the impact of exogenously given D-glucose on treated mice. OGTT was carried out 5 days before the completion of the study.
To perform OGTT, mice fasted overnight were used including both control and treated mice. Glucose was administered orally at the dose of 2 g/kg against glibenclamide as a standard drug. After administration of glucose, blood glucose level was calculated at time intervals of 0, 30, 60, and 120 min for assessment of the impact of exogenously given D-glucose on treated mice.

[6] = target: α-amylase; experiment: in vitro α-amylase inhibition; format: biochemical
Experimental: The starch solution was added, following incubation of the mixture, and the reaction mixture thus prepared was kept in water bath at 100°C for some time. Microplate reader measured the intensity of the color at 656 nm. Following formula was used to determine percentage inhibition:(3) percent inhibition=absorbancecontrol−absorbancesample/absorbancecontrol×100.

## O=C1CCCCC1C1CC(=O)N(Cc2ccccc2)C1=O (stereo not drawn) [BW2, Benzyl-3-(2-Oxocyclohexyl) Pyrrolidine-2,5-Dione]
[1]
  IC50 (ABTS): 12.87 µg/mL (≈ 45.1 µM)
[1]; 31.25 µg/ml
  (%) ABTS inhibitions: 57.40 ± 0.76^∗∗∗ %
[1]; 62.50 µg/ml
  (%) ABTS inhibitions: 61.35 ± 0.51^∗∗∗ %
[1]; 125 µg/ml
  (%) ABTS inhibitions: 66.90 ± 0.96^∗∗∗ %
[1]; 250 µg/ml
  (%) ABTS inhibitions: 71.08 ± 0.47^∗∗∗ %
[1]; 500 µg/ml
  (%) ABTS inhibitions: 76.85 ± 2.24^∗∗∗ %
[2]; dose 31.25 μg/kg
  Change in body weight: −6.8 Gm
  Decrease in blood glucose after 15 days: 35 mg/dL
  Blood glucose level, 0 day: 452 mg/dL
  Blood glucose level, 4th day: 448 mg/dL
  Blood glucose level, 7th day: 431 mg/dL
  Blood glucose level, 10th day: 425 mg/dL
  Blood glucose level, 15th day: 417 mg/dL
[2]; dose 62.5 μg/kg
  Change in body weight: −4.6 Gm
  Decrease in blood glucose after 15 days: 58 mg/dL
  Blood glucose level, 0 day: 386 mg/dL
  Blood glucose level, 4th day: 359 mg/dL
  Blood glucose level, 7th day: 349 mg/dL
  Blood glucose level, 10th day: 336 mg/dL
  Blood glucose level, 15th day: 328 mg/dL
[2]; dose 125 μg/kg
  Change in body weight: −3.7 Gm
  Decrease in blood glucose after 15 days: 68 mg/dL
  Blood glucose level, 0 day: 437 mg/dL
  Blood glucose level, 4th day: 431 mg/dL
  Blood glucose level, 7th day: 422 mg/dL
  Blood glucose level, 10th day: 394 mg/dL
  Blood glucose level, 15th day: 369 mg/dL
[2]; dose 250 μg/kg
  Change in body weight: +3.4 Gm
  Decrease in blood glucose after 15 days: 111 mg/dL
  Blood glucose level, 0 day: 466 mg/dL
  Blood glucose level, 4th day: 461 mg/dL
  Blood glucose level, 7th day: 443 mg/dL
  Blood glucose level, 10th day: 407 mg/dL
  Blood glucose level, 15th day: 355 mg/dL
[2]; dose 500 μg/kg
  Change in body weight: +7.4 Gm
  Decrease in blood glucose after 15 days: 199 mg/dL
  Blood glucose level, 0 day: 456 mg/dL
  Blood glucose level, 4th day: 402 mg/dL
  Blood glucose level, 7th day: 361 mg/dL
  Blood glucose level, 10th day: 303 mg/dL
  Blood glucose level, 15th day: 257 mg/dL
[3]
  IC50 (DPPH): 12.81 µg/mL (≈ 44.9 µM)
[3]; 31.25 µg/ml
  (%) DPPH inhibitions: 56.65 ± 1.34^∗∗∗ %
[3]; 62.50 µg/ml
  (%) DPPH inhibitions: 61.58 ± 1.12^∗∗∗ %
[3]; 125 µg/ml
  (%) DPPH inhibitions: 66.40 ± 0.25^∗∗∗ %
[3]; 250 µg/ml
  (%) DPPH inhibitions: 71.67 ± 1.20^∗∗∗ %
[3]; 500 µg/ml
  (%) DPPH inhibitions: 75.09 ± 0.32^∗∗∗ %
[4]
  IC50 (α-glucosidase): 10.81 µg/mL (≈ 37.9 µM)
[4]; 31.25 µg/ml
  % inhibitions (α-glucosidase): 62.44 ± 0.55^∗∗ %
[4]; 62.50 µg/ml
  % inhibitions (α-glucosidase): 68.47 ± 0.52^∗∗∗ %
[4]; 125 µg/ml
  % inhibitions (α-glucosidase): 74.39 ± 0.49^∗∗∗ %
[4]; 250 µg/ml
  % inhibitions (α-glucosidase): 81.34 ± 0.55^∗ %
[4]; 500 µg/ml
  % inhibitions (α-glucosidase): 87.36 ± 0.49^∗ %
[5]
  OGTT blood glucose, 0 minutes: 163.7 mg/dL
  OGTT blood glucose, 30 minutes: 189.2 mg/dL
  OGTT blood glucose, 60 minutes: 214.8 mg/dL
  OGTT blood glucose, 120 minutes: 151.4 mg/dL
[6]
  IC50 (α-amylase): 15.34 µg/mL (≈ 53.8 µM)
[6]; 31.25 µg/ml
  % inhibitions (α-amylase): 55.85 ± 0.17^∗∗∗ %
[6]; 62.50 µg/ml
  % inhibitions (α-amylase): 63.72 ± 0.11^∗∗∗ %
[6]; 125 µg/ml
  % inhibitions (α-amylase): 67.44 ± 0.15^∗∗∗ %
[6]; 250 µg/ml
  % inhibitions (α-amylase): 73.14 ± 0.49^∗∗∗ %
[6]; 500 µg/ml
  % inhibitions (α-amylase): 78.69 ± 0.14^∗∗∗ %

## O=C1CCCCC1C1CC(=O)N(c2ccc(Br)cc2)C1=O (stereo not drawn) [BW3, (4-Bromophenyl)-3-(2-Oxocyclohexyl) Pyrrolidine-2,5-Dione]
[1]
  IC50 (ABTS): 36.82 µg/mL (≈ 105 µM)
[1]; 31.25 µg/ml
  (%) ABTS inhibitions: 48.42 ± 0.43^ns %
[1]; 62.50 µg/ml
  (%) ABTS inhibitions: 53.33 ± 0.66^∗ %
[1]; 125 µg/ml
  (%) ABTS inhibitions: 58.40 ± 0.82^∗∗∗ %
[1]; 250 µg/ml
  (%) ABTS inhibitions: 64.90 ± 0.45^∗∗∗ %
[1]; 500 µg/ml
  (%) ABTS inhibitions: 70.56 ± 1.06^∗∗∗ %
[2]; dose 31.25 μg/kg
  Change in body weight: −8.4 Gm
  Decrease in blood glucose after 15 days: -39 mg/dL
  Blood glucose level, 0 day: 439 mg/dL
  Blood glucose level, 4th day: 446 mg/dL
  Blood glucose level, 7th day: 457 mg/dL
  Blood glucose level, 10th day: 468 mg/dL
  Blood glucose level, 15th day: 478 mg/dL
[2]; dose 62.5 μg/kg
  Change in body weight: −6.2 Gm
  Decrease in blood glucose after 15 days: -56 mg/dL
  Blood glucose level, 0 day: 443 mg/dL
  Blood glucose level, 4th day: 465 mg/dL
  Blood glucose level, 7th day: 478 mg/dL
  Blood glucose level, 10th day: 493 mg/dL
  Blood glucose level, 15th day: 499 mg/dL
[2]; dose 125 μg/kg
  Change in body weight: +5.3 Gm
  Decrease in blood glucose after 15 days: -29 mg/dL
  Blood glucose level, 0 day: 387 mg/dL
  Blood glucose level, 4th day: 437 mg/dL
  Blood glucose level, 7th day: 430 mg/dL
  Blood glucose level, 10th day: 424 mg/dL
  Blood glucose level, 15th day: 416 mg/dL
[2]; dose 250 μg/kg
  Change in body weight: −5.1 Gm
  Decrease in blood glucose after 15 days: 35 mg/dL
  Blood glucose level, 0 day: 431 mg/dL
  Blood glucose level, 4th day: 419 mg/dL
  Blood glucose level, 7th day: 411 mg/dL
  Blood glucose level, 10th day: 403 mg/dL
  Blood glucose level, 15th day: 396 mg/dL
[2]; dose 500 μg/kg
  Change in body weight: +2.5 Gm
  Decrease in blood glucose after 15 days: 49 mg/dL
  Blood glucose level, 0 day: 430 mg/dL
  Blood glucose level, 4th day: 420 mg/dL
  Blood glucose level, 7th day: 401 mg/dL
  Blood glucose level, 10th day: 387 mg/dL
  Blood glucose level, 15th day: 381 mg/dL
[3]
  IC50 (DPPH): 15.93 µg/mL (≈ 45.5 µM)
[3]; 31.25 µg/ml
  (%) DPPH inhibitions: 57.69 ± 0.77^∗∗∗ %
[3]; 62.50 µg/ml
  (%) DPPH inhibitions: 66.67 ± 0.61^∗∗∗ %
[3]; 125 µg/ml
  (%) DPPH inhibitions: 71.79 ± 0.63^∗∗ %
[3]; 250 µg/ml
  (%) DPPH inhibitions: 76.90 ± 0.48^∗ %
[3]; 500 µg/ml
  (%) DPPH inhibitions: 83.03 ± 0.48^∗ %
[4]
  IC50 (α-glucosidase): 12.15 µg/mL (≈ 34.7 µM)
[4]; 31.25 µg/ml
  % inhibitions (α-glucosidase): 57.47 ± 0.56^∗∗∗ %
[4]; 62.50 µg/ml
  % inhibitions (α-glucosidase): 63.28 ± 0.57^∗∗∗ %
[4]; 125 µg/ml
  % inhibitions (α-glucosidase): 67.90 ± 0.96^∗∗∗ %
[4]; 250 µg/ml
  % inhibitions (α-glucosidase): 72.08 ± 0.47^∗∗∗ %
[4]; 500 µg/ml
  % inhibitions (α-glucosidase): 77.85 ± 2.24^∗∗∗ %
[5]
  OGTT blood glucose, 0 minutes: 156.2 mg/dL
  OGTT blood glucose, 30 minutes: 174.1 mg/dL
  OGTT blood glucose, 60 minutes: 196.3 mg/dL
  OGTT blood glucose, 120 minutes: 145.4 mg/dL
[6]
  IC50 (α-amylase): 18.20 µg/mL (≈ 52 µM)
[6]; 31.25 µg/ml
  % inhibitions (α-amylase): 54.67 ± 0.35^∗∗∗ %
[6]; 62.50 µg/ml
  % inhibitions (α-amylase): 62.16 ± 0.12^∗∗∗ %
[6]; 125 µg/ml
  % inhibitions (α-amylase): 67.62 ± 0.03^∗∗∗ %
[6]; 250 µg/ml
  % inhibitions (α-amylase): 71.36 ± 1.15^∗∗∗ %
[6]; 500 µg/ml
  % inhibitions (α-amylase): 75.35 ± 0.89^∗∗∗ %
